Source: ChEMBL document CHEMBL4321867, “Optimization of LpxC Inhibitor Lead Compounds Focusing on Efficacy and Formulation for High Dose Intravenous Administration” (J Med Chem, 2020)
≈ marks a conversion by molar mass, not a printed value.

Assays:
[1] = system: T1, UDP-3-O-acyl-N-acetylglucosamine deacetylase (Escherichia coli K-12), P0A725 [C125S]; settings: 25 uM
T1 sequence (whole entry): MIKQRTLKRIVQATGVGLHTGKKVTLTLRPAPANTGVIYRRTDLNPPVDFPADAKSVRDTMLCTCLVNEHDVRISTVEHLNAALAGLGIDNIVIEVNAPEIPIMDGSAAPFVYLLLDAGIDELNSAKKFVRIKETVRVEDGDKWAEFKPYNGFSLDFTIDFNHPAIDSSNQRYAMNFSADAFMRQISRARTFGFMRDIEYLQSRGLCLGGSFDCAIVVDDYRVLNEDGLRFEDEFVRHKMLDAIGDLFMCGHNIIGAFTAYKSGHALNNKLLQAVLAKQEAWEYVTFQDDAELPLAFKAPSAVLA

[2] = system: T2, UDP-3-O-acyl-N-acetylglucosamine deacetylase (Pseudomonas aeruginosa (strain ATCC 15692 / PAO1 / 1C / PRS 101 / LMG12228)), P47205 [C40S]; settings: 25 uM
T2 sequence (whole entry): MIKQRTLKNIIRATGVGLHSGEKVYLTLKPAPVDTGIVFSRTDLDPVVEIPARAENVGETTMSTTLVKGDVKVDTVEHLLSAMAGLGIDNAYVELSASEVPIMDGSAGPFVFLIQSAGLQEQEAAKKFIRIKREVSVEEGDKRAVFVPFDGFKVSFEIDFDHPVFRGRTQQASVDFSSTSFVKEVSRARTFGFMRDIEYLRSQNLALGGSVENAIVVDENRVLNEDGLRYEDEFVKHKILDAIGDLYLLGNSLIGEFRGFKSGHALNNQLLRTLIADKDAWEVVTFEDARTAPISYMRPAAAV

[3] = physchem; settings: n-octanol/phosphate buffer, pH 7.4
[4] = physchem
[5] = physchem; settings: buffer, pH 4
[6] = physchem; settings: buffer, pH 7
[7] = physchem; settings: buffer, pH 9
[8] = system: Escherichia coli; assay: microbe, parasite or virus in culture; settings: ATCC 25922
[9] = system: Klebsiella pneumoniae; assay: microbe, parasite or virus in culture; settings: T6474
[10] = system: Pseudomonas aeruginosa; assay: microbe, parasite or virus in culture; settings: ATCC 27853
[11] = in vitro; settings: rat, hepatocytes
[12] = in vitro; settings: rat, liver microsomes
[13] = in vivo; settings: mouse, sc, 150 mg/kg

Compound | deltaTm [1] [K] | deltaTm [2] [K] | logD [3] | pKa [4] | solubility at 24 h [5] [µg/mL] | solubility at 24 h [6] [µg/mL] | solubility at 24 h [7] [µg/mL] | MIC [8] [µg/mL] | MIC [9] [µg/mL] | MIC [10] [µg/mL] | hepatocyte CLint at 1 µM [11] [µL/min/1e6 cells] | microsomal CLint at 1 µM [12] [µL/min/mg] | AUC(0-t) at 24 h [13] [ng·h/mL]
CCN1CC(C#CC#Cc2cc3n(c2)C(=O)N(CC[C@](C)(C(=O)NO)S(C)(=O)=O)C3)C1 | 9.3 | 10.4 | 0.6 | 8.5 | > 750 | > 750 | > 750 | 0.25 (≈ 0.56 µM) | 0.5 (≈ 1.12 µM) | 0.5 (≈ 1.12 µM) |  |  | 
CN1CC(F)(C#CC#Cc2cc3n(c2)C(=O)N(CC[C@](C)(C(=O)NO)S(C)(=O)=O)C3)C1 | 8.1 | 11.6 | 1.1 | 6.7 | > 760 | 219 (≈ 486 µM) | > 760 | 0.12 (≈ 0.266 µM) | 0.5 (≈ 1.11 µM) | 2 (≈ 4.44 µM) |  |  | 
CN1CCC(F)(C#CC#Cc2cc3n(c2)C(=O)N(CC[C@](C)(C(=O)NO)S(C)(=O)=O)C3)CC1 | 9.6 | 12 | 1 | 8 | > 810 | 384 (≈ 802 µM) | 203 (≈ 424 µM) | 0.5 (≈ 1.04 µM) | 1 (≈ 2.09 µM) | 1 (≈ 2.09 µM) |  |  | 
C[C@@](CCN1Cc2cc(C#CC#C[C@@H]3C[C@H]3[C@H](O)CO)cn2C1=O)(C(=O)NO)S(C)(=O)=O |  |  | 0.5 |  | 618 (≈ 1330 µM) | > 780 | > 780 | 0.25 (≈ 0.539 µM) | 1 (≈ 2.16 µM) | 0.5 (≈ 1.08 µM) | 10 | < 10 | 
CC(=O)N1CC(C#CC#Cc2cc3n(c2)C(=O)N(CC[C@](C)(C(=O)NO)S(C)(=O)=O)C3)C1 | 9.7 | 12.4 | 0.3 |  | > 780 | > 780 | > 780 | 1 (≈ 2.17 µM) | 1 (≈ 2.17 µM) | 1 (≈ 2.17 µM) |  |  | 
C[C@@](CCN1Cc2cc(C#CC#CCN3CCC(O)CC3)cn2C1=O)(C(=O)NO)S(C)(=O)=O | 9.5 | 11.5 | 0.4 | 6.5 | > 810 | > 810 | > 810 | 1 (≈ 2.1 µM) | 2 (≈ 4.2 µM) | 1 (≈ 2.1 µM) |  |  | 
C[C@@](CCN1Cc2cc(C#CC#CC3CNC3)cn2C1=O)(C(=O)NO)S(C)(=O)=O | 8 | 9.3 | -1 | 9.4 | > 710 | > 710 | > 710 | 8 (≈ 19.1 µM) | 4 (≈ 9.56 µM) | 1 (≈ 2.39 µM) |  |  | 
CN(C)C1(C#CC#Cc2cc3n(c2)C(=O)N(CC[C@](C)(C(=O)NO)S(C)(=O)=O)C3)CC1 | 11.6 | 13.4 | 2.1 | 5.5 | 412 (≈ 923 µM) | 15 (≈ 33.6 µM) | 95 (≈ 213 µM) | 0.25 (≈ 0.56 µM) | 0.5 (≈ 1.12 µM) | 0.5 (≈ 1.12 µM) |  |  | 
C[C@@](CCN1Cc2cc(C#CC#CC3(CO)CC3)cn2C1=O)(C(=O)NO)S(C)(=O)=O |  |  | 0.9 |  | 149 (≈ 344 µM) | 384 (≈ 886 µM) | 553 (≈ 1280 µM) | 0.25 (≈ 0.577 µM) | 1 (≈ 2.31 µM) | 0.5 (≈ 1.15 µM) | 8.5 | 24 | 89500
C[C@@](CCN1Cc2cc(C#CC#CC3CCN(C4COC4)CC3)cn2C1=O)(C(=O)NO)S(C)(=O)=O | 11.1 | 13.2 | 1.1 | 6.2 | > 850 | 329 (≈ 655 µM) | > 850 | 0.5 (≈ 0.995 µM) | 1 (≈ 1.99 µM) | 2 (≈ 3.98 µM) |  |  | 
C[C@@](CCN1Cc2cc(C#CC#CC3CN(CC(F)F)C3)cn2C1=O)(C(=O)NO)S(C)(=O)=O | 10.6 | 13.2 | 1.4 | 5.2 | > 820 | 209 (≈ 433 µM) | > 820 | 0.06 (≈ 0.124 µM) | 0.25 (≈ 0.518 µM) | 1 (≈ 2.07 µM) |  |  | 
CC(C)(O)CN1CC(C#CC#Cc2cc3n(c2)C(=O)N(CC[C@](C)(C(=O)NO)S(C)(=O)=O)C3)C1 | 10.3 | 12.1 | 0.7 | 7.8 | > 830 | > 830 | > 830 | 0.5 (≈ 1.02 µM) | 1 (≈ 2.04 µM) | 0.5 (≈ 1.02 µM) |  |  | 47300
C[C@@](CCN1Cc2cc(C#CC#C[C@@H]3C[C@H]3CO)cn2C1=O)(C(=O)NO)S(C)(=O)=O |  |  |  |  | 600 (≈ 1380 µM) | 602 (≈ 1390 µM) | 552 (≈ 1270 µM) | 0.12 (≈ 0.277 µM) | 0.25 (≈ 0.577 µM) | 0.5 (≈ 1.15 µM) | 13.4 | < 10 | 
CN1CCC(C#CC#Cc2cc3n(c2)C(=O)N(CC[C@](C)(C(=O)NO)S(C)(=O)=O)C3)CC1 | 10.6 | 11.3 | 0.2 | 9 | > 780 | > 780 | 574 (≈ 1250 µM) | 4 (≈ 8.69 µM) | 4 (≈ 8.69 µM) | 1 (≈ 2.17 µM) |  |  | 
C[C@@](CCN1Cc2cc(C#CC#CC3(CN)CC3)cn2C1=O)(C(=O)NO)S(C)(=O)=O | 9.6 | 10.7 | -0.4 | 9.2 | > 730 | 552 (≈ 1280 µM) | > 730 | 8 (≈ 18.5 µM) | 16 (≈ 37 µM) | 16 (≈ 37 µM) |  |  | 
C[C@@](CCN1Cc2cc(C#CC#C[C@H]3C[C@]3(F)CO)cn2C1=O)(C(=O)NO)S(C)(=O)=O |  |  | 0.9 |  | 354 (≈ 784 µM) | 613 (≈ 1360 µM) | > 760 | 0.25 (≈ 0.554 µM) | 0.5 (≈ 1.11 µM) | 0.5 (≈ 1.11 µM) | 13 | 16 | 
C[C@@](CCN1Cc2cc(C#CC#CC3CN(C4COC4)C3)cn2C1=O)(C(=O)NO)S(C)(=O)=O | 10.5 | 12.6 | 0.5 | 5.5 | > 800 | 128 (≈ 270 µM) | 681 (≈ 1440 µM) | 0.25 (≈ 0.527 µM) | 0.5 (≈ 1.05 µM) | 1 (≈ 2.11 µM) |  |  | 
CC(C)N1CC(C#CC#Cc2cc3n(c2)C(=O)N(CC[C@](C)(C(=O)NO)S(C)(=O)=O)C3)C1 | 9.6 | 11.2 | 1 | 8.3 | > 780 | 398 (≈ 864 µM) | 420 (≈ 912 µM) | 0.25 (≈ 0.543 µM) | 0.25 (≈ 0.543 µM) | 0.5 (≈ 1.09 µM) |  |  | 
CN1CC(C#CC#Cc2cc3n(c2)C(=O)N(CC[C@](C)(C(N)=O)S(C)(=O)=O)C3)C1 | 0 | 0.3 | 0.5 | 8.4 | > 700 | 706 (≈ 1700 µM) | 92 (≈ 221 µM) | > 32 | > 32 | > 32 |  |  | 
C[C@]1(CO)C[C@@H]1C#CC#Cc1cc2n(c1)C(=O)N(CC[C@](C)(C(=O)NO)S(C)(=O)=O)C2 |  |  | 1.6 |  | 344 (≈ 769 µM) | 401 (≈ 896 µM) | 506 (≈ 1130 µM) | 0.25 (≈ 0.559 µM) | 0.25 (≈ 0.559 µM) | 0.25 (≈ 0.559 µM) | 55 | < 10 | 
C[C@@](CCN1Cc2cc(C#CC#CC3(F)CNC3)cn2C1=O)(C(=O)NO)S(C)(=O)=O | 7.1 | 10 | 0.3 | 8 | > 740 | 175 (≈ 401 µM) | 279 (≈ 639 µM) | 1 (≈ 2.29 µM) | 2 (≈ 4.58 µM) | 2 (≈ 4.58 µM) |  |  | 
CNC1(C#CC#Cc2cc3n(c2)C(=O)N(CC[C@](C)(C(=O)NO)S(C)(=O)=O)C3)CC1 | 10.6 | 12.2 | 1.4 | 6.5 | 551 (≈ 1270 µM) | 182 (≈ 421 µM) | 486 (≈ 1120 µM) | 0.12 (≈ 0.277 µM) | 0.25 (≈ 0.578 µM) | 0.5 (≈ 1.16 µM) |  |  | 
